Measured values as given in patent publication US11793824B2, “Administration of nicotinamide mononucleotide in the treatment of disease” (Washington University, priority 2013, dated 2023).

How the values were obtained:
[1] = Stability of NMN in drinking water; type: physicochemical
[2] = Oxygen consumption, energy expenditure, respiratory quotient (Oxymax Lab Animal Monitoring System); type: in vivo, mouse; conditions: 100 mg/kg and 300 mg/kg groups, 12 month time point
Procedure: (§1) A 12 month-long NMN administration study using wild-type mice under a regular chow-fed condition was conducted. NMN was administered through drinking water, and two doses of NMN, 100 and 300 mg/kg body weight/day, were tested. […] To assess beneficial and possible adverse effects of NMN, a variety of physiological parameters were periodically monitored, including body weight, body temperature, food and water intake, fed and fasted blood glucose levels, fed and fasted plasma lipid panels, and glucose and insulin tolerance, in NMN-administered and control mice. Blood chemistry, blood cell counts, urine strip test, and other physiological tests including physical activity test were also checked.
In this long-term NMN administration study (See Methods; Administration of NMN through Drinking Water and Determination of NMN Stability and Toxicity), the inventors measured oxygen consumption, energy expenditure, and respiratory quotient for control, mice administered 100 mg/kg NMN per day and mice administered 300 mg/kg NMN per day at the 12 month time point by using the Oxymax Lab Animal Monitoring System (Columbus Instruments, Columbus, OH).

[3] = tested on: Nampt Ad-Cre infected NSPCs; experiment: Nampt Ad-Cre infected neurospheres with or without NMN: NAD+, proliferation, differentiation; type: cell-based, mouse
Procedure: NAD+ levels were determined using an HPLC system (Shimadzu) with a Supelco LC-18-T column (15 cm×[…]; Sigma), as described previously (Yoshino et al, 2011).
Neurospheres derived from Nampt^flox/flox mice were infected with Ad5 Cre recombinase- or b-galactosidase-expressing (LacZ, control) adenoviruses at an MOI of 100. All assessments were performed at least 6 days post infection.
Neurospheres derived from Nampt^flox/flox mice were dissociated by trypsin digestion and seeded at similar cell densities in 24-well plates with fresh growth medium. Every 24 hours, neurospheres from triplicate wells were collected, dissociated, and counted on a hemocytometer using 0.2% trypan blue exclusion to distinguish viable cells. For analysis of neurosphere diameter, the largest neurosphere in each well was imaged (20× objective) and the diameter was calculated using ImageJ. For secondary neurosphere analysis, the total number of neurospheres in each well was counted at 7 days post-plating.
Three to five days after their first passage, neurospheres were trypsinized, washed with dissociation medium, and plated at 150,000 cells per well in 24-well plates in differentiation medium [growth medium without FGF and EGF and with BDNF (5 ng/mL, Peprotech, 450-02) on glass coverslips coated with poly-D-lysine (50 ug/mL; Sigma) and laminin (20 ug/mL; BD Biosciences)]. 6-well plates were coated with poly-D-lysine (20 ug/mL) and laminin (10 ug/mL). […] The percentage of oligodendrocyte precursor cells (OPCs) generated was analyzed after 2 d of differentiation, and the percentage of differentiated oligodendrocytes was analyzed after 6-7 d of differentiation. […]
Nampt Ad-Cre NSPCs were unable to increase their cell number between 24 and 144 hours of culture. […] Since NSPC self-renewal decisions can also contribute to cell number, the inventors assessed secondary neurosphere formation, an assay that quantifies the ability of neurosphere inhabitant cells to reformulate neurospheres upon dissociation. […]

[4] = Bone mineral density by dual-energy X-ray absorptiometry (DXA); type: in vivo, mouse; conditions: 12-month time point, 17-18 month old mice
Procedure: as §1
The inventors measured the bone mineral density (BMD) of control and NMN-treated mice at the 12-month time point of a 12 month long NMN administration experiment by dual-energy X-ray absorptiometry (DXA). At this time point, mice were 17-18 month old.

For NC(=O)c1ccc[n+]([C@@H]2O[C@H](COP(=O)([O-])O)[C@@H](O)[C@H]2O)c1 [NMN, nicotinamide mononucleotide], the “stability of NMN in drinking water” value ([1]; in solution) was “stable in solution”, the “degradation of NMN in drinking water” value ([1]; room temperature) was “No significant degradation” and the oxygen consumption [2] was “significantly increased”. For the same molecule, the respiratory quotient [2] was “significantly decreased”, the energy expenditure ([2]; through 24 hours) was “significant increases” and the “rescue of reduction in NAD+ levels in Nampt Ad-Cre NSPCs” value ([3]; NMN 100 μM, 48 hours, eight days post deletion) was “rescued”. The “proliferative potential of Nampt Ad-Cre cells” value ([3]; NMN 200 μM) was “fully reactivate”, the “defects in differentiation (oligodendrogenesis, Nestin+ retention) of Nampt Ad-Cre NSPCs” value ([3]; treatment with NMN, 6-7 days of differentiation) was “rescued defects in oligodendrogenesis” and the “increase in the BMD” value ([4]; 100 mg/kg group) was 2.8%. The “increase in the BMD” value ([4]; 300 mg/kg group) was 5.9%.
